According to the METLIN SMRT retention time set (Domingo-Almenara et al. 2019):

Test: gradient 5% acetonitrile 3 min, to 50% in 2 min, to 85% in 15 min, held 3 min, 100 µL/min
Settings: column: Zorbax Extend-C18 2.1 x 50 mm; eluents: water / acetonitrile, 0.1% formic acid
Summary of the method: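 Each retention time is based on an adduct peak selected computationally and verified by manual inspection. Measurements used HPLC–quadrupole time-of-flight mass spectrometry in positive and negative ionization mode on mixtures of ~100 pure standards. Chromatography ran on a Zorbax Extend-C18 column (2.1 × 50 mm, 1.8 μm) at 100 μL/min with water and acetonitrile, each containing 0.1% formic acid, and dead and dwell volumes of 40 μL and 900 μL.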

RP-LC retention time | Compound
770 s | COc1ccc(N2C(=O)c3cc(C)nn3CC2(C)C(=O)NCc2ccc(F)cc2)cc1 (centres undefined)
578 s | COCCN1C(=O)[C@H]2CN(Cc3cc(OC)c(OC)c(OC)c3)C[C@H]2C1=O
717 s | Cc1ccc(Nc2nc(C(=O)NCCc3c(C)noc3C)nc3ccccc23)cc1
696 s | CCn1c(=O)n(CC(=O)N2CCN(C)CC2)c(=O)c2cnc(-c3ccc(Cl)cc3)nc21
571 s | O=C(CCc1c(-c2ccc(Cl)cc2)nc2ccccn12)NCc1ccccn1
1050 s | Cc1cc(C)cc(-c2nc(C3CC(=O)N(c4ccc(F)c(Cl)c4)C3)no2)c1 (centres undefined)
1120 s | Cc1cccc(NC(=O)N2CCN(c3nc4ccccc4nc3C(F)(F)F)CC2)c1
777 s | COc1ccc(Br)cc1CNC(=O)Cn1cnc2nc3c(cc2c1=O)CCCC3
964 s | COc1ccccc1C(=O)Nc1cccc(Cl)c1
727 s | NC(=O)c1ccc2c(c1)S(=O)(=O)c1ccccc1C2=O
626 s | O=S(=O)(Cc1ccccc1F)N1CCc2nnc(C3CC3)n2CC1
547 s | Cc1cc(C)cc(C(=O)N2CCC(c3nc4ccncc4n3C)C2)c1 (centres undefined)
648 s | O=C(c1cccc(-n2cnnn2)c1)N1CC(c2nc(-c3ccccn3)no2)C1
683 s | CCCNC(=O)C1CCCN1C(=O)c1ccc(NC(=O)C(C)(C)C)cc1 (centres undefined)
1290 s | Cc1ccc(-c2noc(-c3ccc(NC(=O)c4ccc(Br)o4)cc3)n2)cc1
1050 s | Cc1ccc(N2CCN(C(=O)C3CCCN(c4ncnc5c4nc4n5CCCCC4)C3)CC2)c(C)c1 (centres undefined)
684 s | O=C(NC1CCCC1)c1cccnc1N1CCCCC1
596 s | NC(=O)CSc1nnc(N2CCN(C(=O)c3ccccc3Cl)CC2)s1
933 s | O=C(COc1ccc(Br)cc1)NCc1ccc2c(c1)OCCCO2
727 s | O=c1ccc(-c2ccccc2)nn1CCc1nc(-c2ccncc2)no1
670 s | O=c1c2cc([N+](=O)[O-])ccc2nc(CN2CCN(c3ccccn3)CC2)n1-c1ccccc1F
918 s | CCN1C(=O)c2cccnc2Sc2cc(NC(=O)c3ccc(C)c(C)c3)ccc21
803 s | Cc1nc(-c2ccc(N3CCN(C(=O)c4ccsc4)CC3)nc2)sc1C

RP-LC retention time | Compound
910 s | Cc1sc(NC(=O)CC(C)C)nc1-c1ccc2c(c1)N(C)C(=O)CO2
665 s | Cc1nn(C(C)C)c(C)c1S(=O)(=O)N1CCN(C(=O)C(C)Oc2ccccc2)CC1 (centres undefined)
1200 s | CCN1C(=O)C2(CCN(S(=O)(=O)c3ccc(Cl)cc3C)CC2)c2ccccc21
1180 s | COc1ccc(OCC(=O)Nc2ccc(-c3nc(-c4ccc(OC)cc4)no3)cc2)cc1
964 s | COc1ccccc1NC(=O)c1cc(=O)n2c(nc3ccccc32)s1
885 s | Cc1nc(N2CCOCC2)c2c(C)c(C(=O)Nc3cccc(Cl)c3C)sc2n1
729 s | O=C(Nc1nc(-c2ccco2)cs1)C1COCC(=O)N1Cc1ccccc1 (centres undefined)
727 s | Cc1cccn2c(Nc3ccc4c(c3)OCCO4)c(-c3cccc(Cl)c3)nc12
588 s | Cc1nc(-c2ccc(NC(=O)N3CCN(c4ccccn4)CC3)cc2)no1
575 s | O=C(NCCCn1cccn1)C1CCc2nc(N3CCCC3)ncc2C1 (centres undefined)
599 s | CS(=O)(=O)N1C[C@H]2CCN(Cc3ccc(Cl)cc3F)C[C@H]21
955 s | COc1ccc(-c2nnc(-c3ccccc3)o2)cc1S(=O)(=O)NC(C)(C)C
690 s | Cn1c(=O)c2nc(SCCC(=O)Nc3ccc(F)cc3)n(C)c2n(C)c1=O
584 s | O=C(NCCn1ncccc1=O)c1c(F)cccc1F
610 s | Cc1ccc(S(=O)(=O)N2CCN(C3CCN(Cc4cccnc4)C3=O)CC2)c(C)c1 (centres undefined)
952 s | COC(=O)c1c(C)[nH]c(C(=O)N2CCCC(C(=O)N3CCN(c4cccc(Cl)c4)CC3)C2)c1C (centres undefined)
950 s | Cc1ccc(NC(=O)N2CCC(C(C)C(=O)Nc3ccc(C)cc3Cl)CC2)cc1 (centres undefined)
858 s | COc1ccccc1CNC(=O)CN1CCN(Cc2ccc(F)cc2Cl)C1=O
721 s | COc1ccc(-c2nc3ccccn3c2Nc2ccccc2C)cc1
1000 s | O=C(c1ccncc1)N1CCc2c([nH]c3ccccc23)C1c1ccc(Cl)cc1 (centres undefined)
550 s | c1ccc(-c2nnc(-c3nc(NCCCN4CCC(N5CCCCC5)CC4)c4ccccc4n3)o2)cc1
680 s | O=C(NCCC1=CCCCC1)c1ccc(CN2CC(=O)N3CCCCC3C2=O)cc1 (centres undefined)
906 s | O=C(NCCC1=CCCCC1)C1CC(=O)N(C2CCCCCC2)C1 (centres undefined)

RP-LC retention time | Compound
1060 s | CCOC(=O)C1C(=O)C=C(c2cccs2)CC1c1ccc(OCC)cc1 (centres undefined)
1080 s | CC(C)N1C(=O)C(CC(=O)Nc2cccc(OC(F)(F)F)c2)=C2CCCCC21 (centres undefined)
807 s | Cc1ccccc1S(=O)(=O)N1CCC(CCC(=O)O)CC1
892 s | CN1C(=O)Cc2cc(C(=O)NC3CCN(Cc4ccccc4)CC3)ccc21
684 s | CCC[C@H](NC(=O)/C(C#N)=C/c1cccc(Br)n1)c1ccccc1
831 s | O=C(COc1ccccc1)NCCSc1c[nH]c2ccccc12
579 s | COCC1CN(Cc2ccc(OC(F)(F)F)cc2)CC12CCNCC2 (centres undefined)
807 s | CN1C(=O)c2cc(C(=O)Nc3ccccc3Br)nn2CC1(C)C(=O)NC1CCCCC1 (centres undefined)
866 s | O=C(Cn1c(=O)oc2ccccc21)N1CCCc2ccccc21
1100 s | O=S(=O)(Cc1ccc(Cl)cc1)N1CCc2nc(-c3ccc(F)cc3)ncc2C1
616 s | COCCNC(=O)N1CCC(c2nnc(C(F)(F)F)o2)CC1
1030 s | COc1ccccc1-c1nc(COc2cc(C)c3c(C)nn(C)c3n2)c(C)o1
736 s | COc1ccc(N2CCN(S(=O)(=O)N(C)C)CC2)cc1
1110 s | COc1ccc(-c2noc(C3(NC(=O)c4cccc(C#N)c4)CCCCC3)n2)cc1
860 s | CCc1ccc(CNC(=O)CN2CCc3ccccc3C2C(=O)N2CCCC2)cc1 (centres undefined)
708 s | Cc1ccccc1-n1ncc2c(NCc3ccco3)ncnc21
617 s | CN(C)c1ccc(CNC(=O)c2ccc3c(c2)NC(=O)C2CCCCN32)cc1 (centres undefined)
611 s | COc1ccccc1OCC(=O)N(Cc1ccc(N(C)C)cc1)C1CCS(=O)(=O)C1 (centres undefined)
779 s | O=C(CCc1c(-c2ccc(F)cc2)nc2ccccn12)NCc1ccccc1Cl
978 s | Cc1ccc(NC(=O)N2CCCC(C)(C(=O)NCc3ccccc3C)C2)cc1C (centres undefined)
1100 s | O=c1ccc(-c2ccccc2)nn1Cc1nc(-c2cccc(Cl)c2)no1
640 s | O=C(Nc1cnn(-c2ncc(N3CCSCC3)cn2)c1)C1CCOC1 (centres undefined)
767 s | O=C(NC1CCN(c2cc(-c3ccccc3)[nH]n2)C1)c1ccc(F)c(Cl)c1 (centres undefined)

RP-LC retention time | Compound
729 s | CCn1cnc(S(=O)(=O)N2CCC(C(=O)NCc3ccc(Cl)cc3)CC2)c1
1220 s | Cc1ccc(Cl)cc1NS(=O)(=O)c1c(C)sc(C)c1-c1cc(C(F)(F)F)on1
1080 s | CC(C)NC(=O)c1cc2c(s1)N(CC1CC1)CCCC2
988 s | Cc1onc(-c2ccc(Br)cc2)c1C(=O)NCc1cccs1
916 s | CCOc1ccc(Cl)cc1S(=O)(=O)N1CCC(C(=O)NC2CCCC2)CC1
1000 s | Cc1c(S(=O)(=O)NCc2ccccc2Cl)c(C)n(C)c1-c1nnc(C2CCC2)o1
686 s | CCC(C)NC(=O)CN1CCN(C(=O)Nc2ccc(Cl)cc2)CC1=O (centres undefined)
1200 s | CSc1ncn(-c2nc(N(C)C)nc(N3CCCCCC3)n2)n1
914 s | CC(C)S(=O)(=O)c1cccc(C(=O)Nc2nc(-c3cc([N+](=O)[O-])cs3)cs2)c1
788 s | CCn1ncc(NC(=O)c2cccc(F)c2)c(N2CCOCC2)c1=O
768 s | CN(CC(=O)N1CCN(c2ccccc2F)CC1)S(=O)(=O)c1ccc2c(c1)CCCC(=O)N2
956 s | Cn1nc(C(=O)Nc2ccccc2)c2c1CCN(C(=O)Nc1ccc(Br)cc1F)C2
712 s | CC(C)NC(=O)N1CCN(Cc2nc3cc(C(C)(C)C)ccc3o2)CC1
828 s | COc1ccc(CCNC(=O)C2CCCN(S(=O)(=O)c3ccc4c(ccn4C)c3)C2)cc1OC (centres undefined)
994 s | Cc1ccc(N2CCN(C(=O)c3cn(-c4cc(N5CCCCC5)ncn4)cn3)CC2)cc1
771 s | COc1ccc(OCC(=O)N2CCC(C(=O)NCc3csc(-c4cccs4)n3)CC2)cc1
692 s | COC(=O)c1ncn2c1C(=O)N(c1ccc(C)cc1)C(C)(C(=O)NCc1ccccc1)C2 (centres undefined)
902 s | CCn1cnc(S(=O)(=O)N2CCC(C(=O)NCc3ccccc3OC)CC2)c1
772 s | O=C(Cn1cccc1-c1nc(-c2ccc(Cl)cc2)cs1)N1CCN(c2ccccn2)CC1
595 s | O=[N+]([O-])c1ccc(-c2nc(NCCCO)c3ccccc3n2)cc1
